For series [1] the following is noted: cited from earlier work.
For series [2] the following is noted: human, in vivo; cited from earlier work.
The subject of series [3] is rabbit VX2 carcinoma and rat 9L gliosarcoma. The following applies: implanted intracerebral tumors; cited from earlier work.
Series [4] relates to copper. The settings on record: at a cupruresis of 2-3 mg.
The test system of series [5] is copper. The following applies: cited from earlier work.
In series [6] the test system is copper absorption. The following applies: cited from earlier work.
[7] abbreviates: therapeutic dose 1,000-2,000 mg/day.

On to `[Mo]` [Mo, molybdenum], for which the efficacy result in series [1] (5-20 mg/kg/day of Mo for 4-11 months) is reported as “not effective”. In series [1] (350 to 1400 mg/day (5-20 mg/kg/day) of Mo for 4-11 months), the toxicity result was “without known toxicity”.

For `CC(C)(S)[C@@H](N)C(=O)O` [penicillamine], the “patients developing an initial hypersensitivity syndrome” value in series [2] is “a quarter to a third of patients”. Further, the survival result in series [3] is given as “did not show improved survival over untreated controls”.

Regarding `NCCNCCNCCN` [trientine], the negative copper balance in series [4] was in the range of 1.5 to 2.5 mg/day. For the same compound, in series [5] (after several weeks of use), the patients with proteinuria result is “about 20 % of patients”. Also, in series [5] (setting [7]), the “cupruresis after the first few weeks of therapy” value was 2 to 3 mg and the “cupruresis, initial” value was 4 to 5 mg.

Take `[Zn]` [zinc]: the toxicity result in series [6] (150 mg daily, 200 Wilson's disease patients) is listed as “no toxicity at all”. Further, the “copper balance, average” value in series [6] (at the two week point) is given as −0.35 mg daily. Moreover, in series [6] (human, in vivo), the “time to bring urine copper and nonceruloplasmin plasma copper down to subtoxic levels” value is recorded as “as long as six months”; the “time to intestinal metallothionein induction and a negative copper balance” value is given as “approximately two weeks”.

Source of the values: patent publication US7438931B2, “Methods and compositions for the treatment of angiogenic diseases” (The Regents of The University of Michigan, priority 1998, dated 2008).
